In assay [1] the target is T1, Serine/threonine-protein kinase Nek2 (Homo sapiens) (UniProt P51955).
T1 sequence (whole entry): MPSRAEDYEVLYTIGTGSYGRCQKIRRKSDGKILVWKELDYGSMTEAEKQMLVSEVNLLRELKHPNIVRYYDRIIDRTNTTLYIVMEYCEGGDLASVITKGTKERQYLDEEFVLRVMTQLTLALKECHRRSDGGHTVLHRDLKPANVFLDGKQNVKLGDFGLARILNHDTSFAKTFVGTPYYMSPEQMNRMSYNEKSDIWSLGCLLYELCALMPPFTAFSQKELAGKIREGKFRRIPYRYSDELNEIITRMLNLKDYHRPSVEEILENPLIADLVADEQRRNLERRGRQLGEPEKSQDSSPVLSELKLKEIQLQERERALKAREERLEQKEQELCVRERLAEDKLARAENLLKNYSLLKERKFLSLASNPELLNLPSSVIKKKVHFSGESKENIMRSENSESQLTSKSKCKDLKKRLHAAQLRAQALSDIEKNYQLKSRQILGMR
As to the kind of experiment: Inhibition of human NEK2A (1 to 445 residues) assessed as enzyme activity at 1 uM using 33P ATP by radioactive filter binding assay. Set-up: scale not given: the % may be the effect or the level left.

For assay [2], the target named is Serine/threonine-protein kinase PAK 6 (Homo sapiens) (UniProt Q9NQU5). Nature of the assay: Inhibition of human PAK6 (2 to 681 residues) assessed as enzyme activity at 1 uM using 33P ATP by radioactive filter binding assay. Set-up: scale not given: the % may be the effect or the level left.
Serine/threonine-protein kinase PAK 6 (Homo sapiens), sequence (Q9NQU5 whole entry, looked up, the tested form may be a part): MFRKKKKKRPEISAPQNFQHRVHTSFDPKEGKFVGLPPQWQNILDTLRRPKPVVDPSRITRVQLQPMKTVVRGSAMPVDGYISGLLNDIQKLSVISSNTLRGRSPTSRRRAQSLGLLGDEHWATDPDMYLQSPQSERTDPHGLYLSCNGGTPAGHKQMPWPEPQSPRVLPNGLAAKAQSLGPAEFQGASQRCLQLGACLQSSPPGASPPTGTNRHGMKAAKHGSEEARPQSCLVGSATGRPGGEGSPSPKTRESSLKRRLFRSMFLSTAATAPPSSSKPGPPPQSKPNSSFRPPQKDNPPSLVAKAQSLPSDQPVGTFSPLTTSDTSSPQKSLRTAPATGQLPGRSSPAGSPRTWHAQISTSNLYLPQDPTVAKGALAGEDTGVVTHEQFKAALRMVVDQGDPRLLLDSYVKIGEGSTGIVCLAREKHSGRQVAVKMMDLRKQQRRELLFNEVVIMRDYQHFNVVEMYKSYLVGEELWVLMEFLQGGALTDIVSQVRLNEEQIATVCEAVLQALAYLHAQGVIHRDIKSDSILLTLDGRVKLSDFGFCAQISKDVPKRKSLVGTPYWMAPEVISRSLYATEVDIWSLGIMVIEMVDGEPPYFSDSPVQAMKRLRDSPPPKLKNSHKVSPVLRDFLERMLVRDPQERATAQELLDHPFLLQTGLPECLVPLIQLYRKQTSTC
In assay [3] the target is Ribosomal protein S6 kinase alpha-3 (Homo sapiens) (UniProt P51812). As to the kind of experiment: Inhibition of human MAPKAPK1beta assessed as enzyme activity at 1 uM using 33P ATP by radioactive filter binding assay. Set-up: scale not given: the % may be the effect or the level left.
Ribosomal protein S6 kinase alpha-3 (Homo sapiens), sequence (P51812 whole entry, the tested form may be a part): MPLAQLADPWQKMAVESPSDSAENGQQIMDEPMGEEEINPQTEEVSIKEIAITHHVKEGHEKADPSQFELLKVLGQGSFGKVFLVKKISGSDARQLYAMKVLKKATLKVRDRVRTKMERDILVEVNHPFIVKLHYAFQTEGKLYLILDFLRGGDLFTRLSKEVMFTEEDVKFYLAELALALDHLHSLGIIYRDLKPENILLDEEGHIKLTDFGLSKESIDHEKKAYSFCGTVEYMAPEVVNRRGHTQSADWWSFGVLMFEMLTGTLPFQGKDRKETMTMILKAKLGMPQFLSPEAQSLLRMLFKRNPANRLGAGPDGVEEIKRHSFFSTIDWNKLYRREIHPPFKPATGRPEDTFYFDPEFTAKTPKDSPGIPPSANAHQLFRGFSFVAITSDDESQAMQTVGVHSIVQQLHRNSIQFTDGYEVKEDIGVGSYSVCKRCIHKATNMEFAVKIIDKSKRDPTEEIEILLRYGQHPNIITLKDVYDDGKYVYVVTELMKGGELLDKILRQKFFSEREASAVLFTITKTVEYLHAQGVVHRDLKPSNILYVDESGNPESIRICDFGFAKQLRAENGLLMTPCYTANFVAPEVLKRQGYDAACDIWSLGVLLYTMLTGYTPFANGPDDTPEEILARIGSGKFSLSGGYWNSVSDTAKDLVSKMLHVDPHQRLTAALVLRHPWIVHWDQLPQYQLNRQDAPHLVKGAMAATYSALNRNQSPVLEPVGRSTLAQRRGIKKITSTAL
The target in assay [4] is Serine/threonine-protein kinase PLK1 (Homo sapiens) (UniProt P53350). As to the kind of experiment: Inhibition of human PLK1 (1 to 603 residues) assessed as enzyme activity at 1 uM using 33P ATP by radioactive filter binding assay. Set-up: scale not given: the % may be the effect or the level left.
Serine/threonine-protein kinase PLK1 (Homo sapiens), sequence (P53350 whole entry, the tested form may be a part): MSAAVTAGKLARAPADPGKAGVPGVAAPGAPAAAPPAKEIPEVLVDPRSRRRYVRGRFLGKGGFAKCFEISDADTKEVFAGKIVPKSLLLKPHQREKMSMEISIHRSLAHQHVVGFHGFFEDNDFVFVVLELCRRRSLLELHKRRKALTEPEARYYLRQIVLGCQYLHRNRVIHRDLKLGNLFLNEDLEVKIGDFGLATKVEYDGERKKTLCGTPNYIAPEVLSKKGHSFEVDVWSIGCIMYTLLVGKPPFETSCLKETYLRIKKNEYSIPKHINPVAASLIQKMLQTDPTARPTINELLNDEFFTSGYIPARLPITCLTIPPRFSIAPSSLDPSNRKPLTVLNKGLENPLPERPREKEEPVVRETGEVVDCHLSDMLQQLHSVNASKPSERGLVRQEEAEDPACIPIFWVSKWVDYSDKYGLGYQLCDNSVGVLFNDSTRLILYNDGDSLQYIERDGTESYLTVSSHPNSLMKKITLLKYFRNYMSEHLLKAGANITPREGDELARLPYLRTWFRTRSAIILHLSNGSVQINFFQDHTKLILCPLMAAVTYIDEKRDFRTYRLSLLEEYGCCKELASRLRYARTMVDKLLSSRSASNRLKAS
Assay [5] has as its target RAC-beta serine/threonine-protein kinase (Homo sapiens) (UniProt P31751). Nature of the assay: Inhibition of human PKBbeta (120 to 481 residues) assessed as enzyme activity at 1 uM using 33P ATP by radioactive filter binding assay. Set-up: scale not given: the % may be the effect or the level left.
The target of assay [6] is MAP kinase-interacting serine/threonine-protein kinase 1 (Homo sapiens) (UniProt Q9BUB5). Nature of the assay: Inhibition of human MNK1 (2 to 424 residues) assessed as enzyme activity at 1 uM using 33P ATP by radioactive filter binding assay. Further details: scale not given: the % may be the effect or the level left.
MAP kinase-interacting serine/threonine-protein kinase 1 (Homo sapiens), sequence (Q9BUB5 whole entry, looked up, the tested form may be a part): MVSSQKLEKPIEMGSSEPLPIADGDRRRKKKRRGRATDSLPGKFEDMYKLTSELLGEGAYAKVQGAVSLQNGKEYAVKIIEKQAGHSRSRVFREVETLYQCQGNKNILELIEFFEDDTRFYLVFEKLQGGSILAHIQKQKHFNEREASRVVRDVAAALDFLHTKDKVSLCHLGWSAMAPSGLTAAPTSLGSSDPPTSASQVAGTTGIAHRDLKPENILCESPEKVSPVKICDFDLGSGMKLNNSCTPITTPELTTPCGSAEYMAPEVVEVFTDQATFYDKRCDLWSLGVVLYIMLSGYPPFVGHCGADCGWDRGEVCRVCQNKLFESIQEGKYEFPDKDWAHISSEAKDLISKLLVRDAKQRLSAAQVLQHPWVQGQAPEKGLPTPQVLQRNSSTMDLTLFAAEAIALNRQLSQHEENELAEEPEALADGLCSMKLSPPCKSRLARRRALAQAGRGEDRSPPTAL
Assay [7] has as its target T2, MAP kinase-activated protein kinase 5 (Homo sapiens) (UniProt Q8IW41).
T2 sequence (whole entry): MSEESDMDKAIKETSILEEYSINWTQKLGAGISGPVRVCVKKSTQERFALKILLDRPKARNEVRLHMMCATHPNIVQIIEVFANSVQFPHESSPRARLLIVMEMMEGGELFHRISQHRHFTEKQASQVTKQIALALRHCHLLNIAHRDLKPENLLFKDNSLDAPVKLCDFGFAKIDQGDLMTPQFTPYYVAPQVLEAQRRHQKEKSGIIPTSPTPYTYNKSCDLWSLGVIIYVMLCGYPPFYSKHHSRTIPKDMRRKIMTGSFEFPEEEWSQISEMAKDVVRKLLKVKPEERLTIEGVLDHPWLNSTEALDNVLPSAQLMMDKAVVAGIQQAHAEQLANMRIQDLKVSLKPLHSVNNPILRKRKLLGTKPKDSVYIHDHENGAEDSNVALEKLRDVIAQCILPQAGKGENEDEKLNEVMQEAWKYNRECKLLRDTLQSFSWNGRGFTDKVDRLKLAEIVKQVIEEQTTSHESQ
As to the kind of experiment: Inhibition of human PRAK (1 to 471 residues) assessed as enzyme activity at 1 uM using 33P ATP by radioactive filter binding assay. Set-up: scale not given: the % may be the effect or the level left.

For assay [8], the target named is T3, Protein kinase C zeta type (Homo sapiens) (UniProt Q05513).
T3 sequence (whole entry): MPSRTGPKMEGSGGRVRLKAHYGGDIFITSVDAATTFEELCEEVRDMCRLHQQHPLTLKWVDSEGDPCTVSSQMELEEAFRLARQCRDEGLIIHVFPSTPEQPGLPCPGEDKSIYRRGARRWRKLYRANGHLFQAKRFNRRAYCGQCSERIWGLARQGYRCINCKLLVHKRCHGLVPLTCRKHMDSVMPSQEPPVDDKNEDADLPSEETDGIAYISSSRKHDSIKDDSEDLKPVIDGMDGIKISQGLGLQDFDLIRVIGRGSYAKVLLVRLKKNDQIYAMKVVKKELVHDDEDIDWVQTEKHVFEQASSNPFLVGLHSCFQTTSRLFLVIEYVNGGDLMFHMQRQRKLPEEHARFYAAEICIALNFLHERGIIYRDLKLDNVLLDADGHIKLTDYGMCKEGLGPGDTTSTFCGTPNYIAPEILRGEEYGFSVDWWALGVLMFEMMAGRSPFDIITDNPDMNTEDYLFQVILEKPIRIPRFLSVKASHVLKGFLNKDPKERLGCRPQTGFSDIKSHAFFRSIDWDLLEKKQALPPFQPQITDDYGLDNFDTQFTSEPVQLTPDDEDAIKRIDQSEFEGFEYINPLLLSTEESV
Nature of the assay: Inhibition of human PKCzeta (2 to 592 residues) assessed as enzyme activity at 1 uM using 33P ATP by radioactive filter binding assay. Further details: scale not given: the % may be the effect or the level left.

Assay [9] has as its target T4, Serine/threonine-protein kinase 3 (Homo sapiens) (UniProt Q13188).
T4 sequence (whole entry): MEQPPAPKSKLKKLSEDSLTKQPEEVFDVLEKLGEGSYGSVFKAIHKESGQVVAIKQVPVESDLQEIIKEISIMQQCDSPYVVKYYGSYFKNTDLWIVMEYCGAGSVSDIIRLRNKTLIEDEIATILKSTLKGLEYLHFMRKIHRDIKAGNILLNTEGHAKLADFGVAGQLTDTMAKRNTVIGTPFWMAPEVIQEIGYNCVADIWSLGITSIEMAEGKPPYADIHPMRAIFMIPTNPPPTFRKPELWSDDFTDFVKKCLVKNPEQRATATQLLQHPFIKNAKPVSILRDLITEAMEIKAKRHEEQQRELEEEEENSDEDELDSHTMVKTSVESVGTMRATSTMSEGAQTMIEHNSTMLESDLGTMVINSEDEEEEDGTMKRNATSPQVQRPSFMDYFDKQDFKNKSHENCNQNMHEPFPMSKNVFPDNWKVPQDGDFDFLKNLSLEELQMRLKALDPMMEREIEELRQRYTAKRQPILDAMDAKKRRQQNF
Nature of the assay: Inhibition of human MST2 (2 to 491 residues) assessed as enzyme activity at 1 uM using 33P ATP by radioactive filter binding assay. Further details: scale not given: the % may be the effect or the level left.

Assay [10] has as its target Serine/threonine-protein kinase Nek6 (Homo sapiens) (UniProt Q9HC98). As to the kind of experiment: Inhibition of human NEK6 (8 to 313 residues) assessed as enzyme activity at 1 uM using 33P ATP by radioactive filter binding assay. Further details: scale not given: the % may be the effect or the level left.
For assay [11], the target named is Serine/threonine-protein kinase Chk2 (Homo sapiens) (UniProt O96017). As to the kind of experiment: Inhibition of human CHK2 (5 to 543 residues) assessed as enzyme activity at 1 uM using 33P ATP by radioactive filter binding assay. Further details: scale not given: the % may be the effect or the level left.
Serine/threonine-protein kinase Chk2 (Homo sapiens), sequence (O96017 whole entry, the tested form may be a part, canonical isoform): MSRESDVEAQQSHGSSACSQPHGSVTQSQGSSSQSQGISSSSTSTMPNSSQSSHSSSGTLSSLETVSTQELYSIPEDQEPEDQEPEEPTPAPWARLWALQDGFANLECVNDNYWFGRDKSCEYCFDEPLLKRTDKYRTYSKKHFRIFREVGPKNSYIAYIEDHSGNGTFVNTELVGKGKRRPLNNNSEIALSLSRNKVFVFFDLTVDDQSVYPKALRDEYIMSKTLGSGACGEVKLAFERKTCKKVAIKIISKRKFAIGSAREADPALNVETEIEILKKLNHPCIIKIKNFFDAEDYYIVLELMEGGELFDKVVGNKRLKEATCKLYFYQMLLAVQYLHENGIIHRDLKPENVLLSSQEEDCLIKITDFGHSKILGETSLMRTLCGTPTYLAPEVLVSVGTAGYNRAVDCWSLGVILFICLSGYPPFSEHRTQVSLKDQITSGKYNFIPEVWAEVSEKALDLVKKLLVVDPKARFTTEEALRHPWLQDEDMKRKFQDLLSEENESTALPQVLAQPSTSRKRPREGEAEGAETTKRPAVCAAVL
Assay [12] addresses Phosphatidylinositol 4,5-bisphosphate 3-kinase catalytic subunit gamma isoform (Homo sapiens, UniProt P48736). Nature of the assay: Inhibition of PI3K gamma (unknown origin).

Drawing on ChEMBL document CHEMBL3813616, “Discovery of novel 7-azaindoles as PDK1 inhibitors” (Bioorg Med Chem Lett, 2016), this text covers Activity and IC50 for four compounds.

Serine/threonine-protein kinase Nek6 (Homo sapiens), sequence (Q9HC98 whole entry, the tested form may be a part): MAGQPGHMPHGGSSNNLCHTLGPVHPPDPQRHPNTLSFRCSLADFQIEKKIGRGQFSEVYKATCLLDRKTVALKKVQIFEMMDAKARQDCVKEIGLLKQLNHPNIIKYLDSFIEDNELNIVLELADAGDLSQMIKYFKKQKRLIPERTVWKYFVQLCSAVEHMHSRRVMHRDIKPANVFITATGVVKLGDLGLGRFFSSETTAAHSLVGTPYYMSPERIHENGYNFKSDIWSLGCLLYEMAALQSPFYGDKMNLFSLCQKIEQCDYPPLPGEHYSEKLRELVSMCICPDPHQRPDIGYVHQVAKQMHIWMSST
Phosphatidylinositol 4,5-bisphosphate 3-kinase catalytic subunit gamma isoform, sequence (P48736 whole entry, canonical isoform): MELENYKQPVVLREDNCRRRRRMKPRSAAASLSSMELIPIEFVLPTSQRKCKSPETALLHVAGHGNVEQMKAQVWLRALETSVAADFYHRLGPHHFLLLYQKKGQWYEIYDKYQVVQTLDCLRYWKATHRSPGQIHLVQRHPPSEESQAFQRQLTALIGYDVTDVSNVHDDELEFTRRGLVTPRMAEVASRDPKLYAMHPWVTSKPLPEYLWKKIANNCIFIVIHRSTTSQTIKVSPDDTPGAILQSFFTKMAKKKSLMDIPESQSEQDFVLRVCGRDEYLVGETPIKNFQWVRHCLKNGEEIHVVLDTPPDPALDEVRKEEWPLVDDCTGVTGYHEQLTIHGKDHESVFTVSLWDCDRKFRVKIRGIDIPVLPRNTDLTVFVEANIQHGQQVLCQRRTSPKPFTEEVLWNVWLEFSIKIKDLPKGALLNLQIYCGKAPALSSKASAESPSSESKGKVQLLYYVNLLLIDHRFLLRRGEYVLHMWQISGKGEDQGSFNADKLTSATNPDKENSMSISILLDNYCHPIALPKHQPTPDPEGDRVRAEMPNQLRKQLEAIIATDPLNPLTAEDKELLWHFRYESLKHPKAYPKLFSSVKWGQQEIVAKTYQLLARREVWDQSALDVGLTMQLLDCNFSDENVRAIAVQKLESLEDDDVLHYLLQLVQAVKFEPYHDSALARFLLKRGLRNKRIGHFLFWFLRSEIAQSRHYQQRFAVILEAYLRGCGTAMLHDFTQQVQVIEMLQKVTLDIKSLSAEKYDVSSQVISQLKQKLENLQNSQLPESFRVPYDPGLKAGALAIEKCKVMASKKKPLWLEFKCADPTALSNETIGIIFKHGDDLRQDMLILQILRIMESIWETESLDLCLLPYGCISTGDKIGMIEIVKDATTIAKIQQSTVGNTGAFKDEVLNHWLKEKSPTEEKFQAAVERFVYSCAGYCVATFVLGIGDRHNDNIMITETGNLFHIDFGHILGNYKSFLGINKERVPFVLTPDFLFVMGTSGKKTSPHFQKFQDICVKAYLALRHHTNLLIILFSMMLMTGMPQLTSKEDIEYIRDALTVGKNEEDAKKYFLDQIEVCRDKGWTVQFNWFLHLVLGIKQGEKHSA
RAC-beta serine/threonine-protein kinase (Homo sapiens), sequence (P31751 whole entry, the tested form may be a part): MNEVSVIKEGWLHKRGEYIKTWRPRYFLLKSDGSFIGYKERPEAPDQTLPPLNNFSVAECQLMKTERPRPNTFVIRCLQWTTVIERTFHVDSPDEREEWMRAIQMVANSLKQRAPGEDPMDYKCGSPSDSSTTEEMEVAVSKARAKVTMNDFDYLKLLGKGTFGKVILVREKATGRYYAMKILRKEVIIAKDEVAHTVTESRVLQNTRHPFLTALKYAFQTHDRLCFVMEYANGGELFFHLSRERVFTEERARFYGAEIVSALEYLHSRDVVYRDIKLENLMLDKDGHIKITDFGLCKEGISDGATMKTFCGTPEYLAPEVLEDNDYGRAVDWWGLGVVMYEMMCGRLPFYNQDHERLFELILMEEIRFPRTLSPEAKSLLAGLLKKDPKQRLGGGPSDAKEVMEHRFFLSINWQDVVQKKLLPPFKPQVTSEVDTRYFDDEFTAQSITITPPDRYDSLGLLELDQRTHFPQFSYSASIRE

Consider `CCCCc1cc(-c2c[nH]c3ncc(-c4cnn(C5CCNCC5)c4)cc23)nc(N)n1`, for which the Activity in [1] is -89%; in assay [2], -50%; in [3], -92%; in assay [4], -41%; in assay [5] it was -21%; in [6], -59%. Besides, the Activity is -10% in [7]; -42% in assay [8]; -86% in [9]; -16% in [10]; -92% in [11].
For the compound `Nc1nccc(-c2c[nH]c3ncccc23)n1` [MERIOLIN 1], the Activity in [1] is -4%; in [2], -27%; in assay [3], -46%; in assay [4] it was -26%; in assay [5] it was -9%; in [6] it was -15%. For the same compound, the Activity in assay [7] is -17%; in [8], -35%; in [9], -20%; in assay [10], -7%; in assay [11], -37%. Besides, the IC50 (commonly the midpoint of a concentration-inhibition curve) in assay [12] was > 10 µM.
With `CCCCc1cc(-c2c[nH]c3ncccc23)nc(N)n1`, the Activity in assay [1] is 2%; in assay [2] it was 3%; in assay [3], -17%; in [4] it was -6%; in assay [5], -3%; in [6] it was -23%. For the same compound, the Activity in assay [7] was 2%; in assay [8], -43%; in [9] it was -33%; in assay [10], -11%; in assay [11] it was -44%. Further, in [12], the IC50 is > 10 µM.
Turning to `CCc1cc(-c2c[nH]c3ncc(-c4cnn(C5CCNCC5)c4)cc23)nc(N)n1`, the Activity in assay [1] is -58%; in assay [2], -5%; in [3] it was -71%; in assay [4], -41%; in [5], 3%; in [6] it was -46%. The Activity is 4% in assay [7]; -18% in assay [8]; -63% in assay [9]; -4% in assay [10]; -81% in assay [11]. Besides, the IC50 in [12] is > 10 µM.
